# According to US20250059175A1, “Mutant Pi3k-Alpha Inhibitors And Their Use As Pharmaceuticals” (Prelude Therapeutics Incorporated, priority 2023, published 2025):
# System: phosphorylation of AKT on Ser473 (PI3K pathway) in T-47D (heterozygous PIK3CA H1047R) cell line
# Assay: PI3K pathway activation assay (pAKT Ser473 HTRF), T-47D cells
# Assay type: cell-based
# Settings: Homo sapiens, T47D, 2 h, read-out: T47D pAKT IC50
# Protocol: The inhibitory activity of the compounds of the disclosure was evaluated by measuring phosphorylation of AKT on Ser473 as a readout of the PI3K pathway using HTRF (CisBio catalog number: 64AKSPE). These studies were conducted in the T-47D (heterozygous PIK3CA H1047R) and SKBR3 (PIK3CA WT) cell lines. Cells were maintained in a 37° C. incubator at 5% CO2 in the following media: T-47D: RPMI 1640, ATCC© Modification (Gibco, A10491-01) supplemented with 10% v/v FBS (Gibco, 26140-079), 1% penicillin streptomycin (Gibco, 15140-122), and 7.4 ug/mL insulin (MilliporeSigma, I9278); SKBR3: McCoy's 5a (Modified) Medium (Gibco, 16600-082) supplemented with 10% v/v FBS (Gibco, 26140-079). Cells were seeded in 384-well plates at a density of 4,000 cells/well. Compounds dissolved in DMSO were added using a digital dispense (D300E, Tecan) 10-point serial dilution. After two hours of treatment, cells were lysed for thirty minutes and then incubated with detection reagents per HTRF kit material and manufacturer's instructions. Fluorescence signal was measured with a multimode plate reader (Envision 2105, Perkin Elmer). Fluorescent signal was normalized to background and DMSO controls to obtain percent inhibition/activity for each compound.
row,Structure (SMILES),IC50 [µM]
1,"Cc1cc([C@@H](C)Nc2ccc(Cl)nc2C(=O)O)nc(N2C(=O)OC[C@@H]2Cc2ccccc2Br)c1 [Example 22, 3-(((R)-1-(6-((S)-4-(2-Bromobenzyl)-2-oxooxazolidin-3-yl)-4-methylpyridin-2-yl)ethyl)amino)-6-chloropicolinic acid]",0.1 to 1

# Same assay, conditions: Homo sapiens, T47D, 2 h; T-47D (heterozygous PIK3CA H1047R) cells, two hours of treatment, pAKT Ser473 HTRF; read-out: T47D pAKT IC50
row,Structure (SMILES),IC50 [µM]
1,"Cc1cc([C@@H](C)Nc2ccc(Cl)nc2C(=O)O)nc(N2C(=O)OC[C@@H]2Cc2nn(C)c3ccccc23)c1 [Example 38, 6-Chloro-3-(((R)-1-(4-methyl-6-((S)-4-((1-methyl-1H-indazol-3-yl)methyl)-2-oxooxazolidin-3-yl)pyridin-2-yl)ethyl)amino)picolinic acid]",0.1 to 1
2,"Cc1cc([C@@H](C)Nc2ccc(Cl)nc2C(=O)O)nc(N2C(=O)OC[C@@H]2Cc2cnn(C)c2)c1 [Example 32, 6-Chloro-3-(((R)-1-(4-methyl-6-((S)-4-((1-methyl-1H-pyrazol-4-yl)methyl)-2-oxooxazolidin-3-yl)pyridin-2-yl)ethyl)amino)picolinic acid]",0.1 to 1
3,"Cc1cc(C(C)Nc2ccc(C#N)nc2C(=O)O)nc(N2C(=O)OC[C@@H]2Cc2ccccc2)c1 (stereo partly drawn) [Example 19, 3-((1-(6-((S)-4-Benzyl-2-oxooxazolidin-3-yl)-4-methylpyridin-2-yl)ethyl)amino)-6-cyanopicolinic acid]",1 to 10
4,"Cc1cc(C(C)Nc2ccc(F)nc2C(=O)O)cc(N2C(=O)OC[C@@H]2Cc2ccccc2)c1 (stereo partly drawn) [Example 3, 3-((1-(3-((S)-4-Benzyl-2-oxooxazolidin-3-yl)-5-methylphenyl)ethyl)amino)-6-fluoropicolinic acid]",0.1 to 1
5,"Cc1cc(C(C)Nc2ccc(Cl)nc2C(=O)O)cc(N2C(=O)OC[C@@H]2Cc2ccccc2)c1 (stereo partly drawn) [Example 1, 3-((1-(3-((S)-4-Benzyl-2-oxooxazolidin-3-yl)-5-methylphenyl)ethyl)amino)-6-chloropicolinic acid]",0.1 to 1
6,"Cc1cc([C@@H](C)Nc2ccc(Cl)nc2C(=O)O)nc(N2C(=O)OC[C@@H]2Cc2ccnn2C)c1 [Example 34, 6-Chloro-3-(((R)-1-(4-methyl-6-((S)-4-((1-methyl-1H-pyrazol-5-yl)methyl)-2-oxooxazolidin-3-yl)pyridin-2-yl)ethyl)amino)picolinic acid]",0.1 to 1
7,"Cc1cc([C@@H](C)Nc2ccc(Cl)nc2C(=O)O)nc(N2C(=O)CCC2Cc2ccccc2)c1 (stereo partly drawn) [Example 55, 3-(((1R)-1-(6-(2-benzyl-5-oxopyrrolidin-1-yl)-4-methylpyridin-2-yl)ethyl)amino)-6-chloropicolinic acid]",1 to 10
8,"Cc1cc(C(C)Nc2ccccc2C(=O)O)nc(N2C(=O)OC[C@@H]2Cc2ccccc2)c1 (stereo partly drawn) [Example 17, 2-((1-(6-((S)-4-Benzyl-2-oxooxazolidin-3-yl)-4-methylpyridin-2-yl)ethyl)amino)benzoic acid]",1 to 10
9,"Cc1cc([C@@H](C)Nc2ccc(Cl)nc2C(=O)O)nc(N2C(=O)OC[C@@H]2Cc2ccn(C)n2)c1 [Example 33, 6-Chloro-3-(((R)-1-(4-methyl-6-((S)-4-((1-methyl-1H-pyrazol-3-yl)methyl)-2-oxooxazolidin-3-yl)pyridin-2-yl)ethyl)amino)picolinic acid]",0.1 to 1
10,"CC(Nc1ccc(Cl)nc1C(=O)O)c1cc(F)cc(N2C(=O)OC[C@@H]2Cc2ccccc2)c1 (stereo partly drawn) [Example 4, 3-((1-(3-((S)-4-Benzyl-2-oxooxazolidin-3-yl)-5-fluorophenyl)ethyl)amino)-6-chloropicolinic acid]",0.1 to 1
11,"Cc1cc([C@@H](C)Nc2ccc(Cl)nc2C(=O)O)nc(N2C(=O)OC[C@@H]2Cc2cn(C)nc2C)c1 [Example 35, 6-Chloro-3-(((R)-1-(6-((S)-4-((1,3-dimethyl-1H-pyrazol-4-yl)methyl)-2-oxooxazolidin-3-yl)-4-methylpyridin-2-yl)ethyl)amino)picolinic acid]",0.1 to 1

# Same assay, conditions: T-47D (heterozygous PIK3CA H1047R) cells, two hours of treatment, pAKT Ser473 HTRF; read-out: T47D pAKT IC50
row,Structure (SMILES),IC50 [µM]
1,"Cc1cc([C@@H](C)Nc2ccc(Cl)nc2C(=O)O)nc(N2C(=O)OC[C@@H]2Cc2ccn3nccc3c2)c1 [Example 40, 6-Chloro-3-(((R)-1-(4-methyl-6-((S)-2-oxo-4-(pyrazolo[1,5-α]pyridin-5-ylmethyl)oxazolidin-3-yl)pyridin-2-yl)ethyl)amino)picolinic acid]",< 0.1
